Read-outs that look alike come from different tables or passages of the source.
Key:
[1] = system: amaranthus retroflexus; test: Potted plants live body test; type: in vivo; settings: 150 g a.i./ha, 30 days, Table 9
Text: (§1) The raw drug which was selected from the compounds in table 1 was weighed using an analytical balance (0.0001 g), and dissolved in DMF containing 1 wt % Tween-80 emulsifier to prepare a mother liquor of raw drug with a mass concentration of 1.0˜5.0%, and then diluted with distilled water, to prepare preparations at desired concentrations according to the ratio of ingredients in Examples 8, 9 and 10.
(§2) The test targets were mustard, small quinoa, Abutilon, amaranthus retroflexus, Eclipta prostrata, crabgrass, dog point. A pot with a diameter of 7.5 cm was used, filled with composite soil (garden soil:nursery matrix, 1:2, v/v) to ¾ of the pot, then the above […] kinds of weeds targets were directly seeded (germination rate ≧85%), covered with soil at a thickness of 0.2 cm. When the weeds grew to 3-leaf stage, pre-emergence soil treatment for weeds planting, and then spraying was performed.

[2] = system: Dog point; test: Potted plants live body test; type: in vivo; settings: 150 g a.i./ha, 30 days, Table 9
Text: as §1, §2

[3] = system: Crabgrass; test: Potted plants live body test; type: in vivo; settings: 150 g a.i./ha, 30 days, Table 9
Text: as §1, §2

[4] = system: Eclipta prostrata; test: Potted plants live body test; type: in vivo; settings: 150 g a.i./ha, 30 days, Table 9
Text: as §1, §2

[5] = system: Abutilon; test: Potted plants live body test; type: in vivo; settings: 150 g a.i./ha, 30 days, Table 9
Text: as §1, §2

[6] = system: Wheat; test: Culture dish method (general screening); type: in vivo; settings: 100 mg/L, 7 days
Text: (§3) Culture dish method (general screening): The test targets were radish, cucumber, rape, wheat, sorghum and barnyard grass; the seeds of wheat, sorghum and radish were germinated in advance, and the uniform emerge-germinating seeds were used in the test.

[7] = system: Chinese sorghum; test: Culture dish method (general screening); type: in vivo; settings: 100 mg/L, 7 days
Text: as §3

[8] = system: Radish; test: Culture dish method (general screening); type: in vivo; settings: 100 mg/L, 7 days
Text: as §3

[9] = system: Mustard; settings: 150 g a.i./ha, 30 days, Table 9
[10] = system: Cucumber; test: Culture dish method (general screening); type: in vivo; settings: 100 mg/L, 7 days
Text: as §3

[11] = system: Barnyardgrass; test: Culture dish method (general screening); type: in vivo, barnyard grass; settings: 100 mg/L, 7 days
Text: as §3

[12] = system: Rape; test: Culture dish method (general screening); type: in vivo; settings: 100 mg/L, 7 days
Text: as §3

[13] = system: Small quinoa; settings: 150 g a.i./ha, 30 days, Table 9
Text: as §1, §2

[14] = system: grass weeds such as crabgrass, barnyard grass, dog point; settings: 150 g a.i./ha; for activity for grass targets such as crabgrass and dog point: 30 days after administration, Table 9 summary; for activity on grass weeds such as crabgrass, dog point: postemergence spraying, 30 days
Text: as §1, §2

[15] = system: broadleaf weeds such as mustard, small quinoa, Abutilon, Amaranthus retroflexus and Eclipta prostrate; settings: 150 g a.i./ha; for herbicidal activity on broadleaf weeds targets: 30 days after administration, Table 9 summary; for activity on the growth of broadleaf weeds: postemergence spraying, 30 days, vs clear water control
Text: as §1, §2

Structure (SMILES) | efficiency, amaranthus retroflexus ([1]; Postemergence spraying) | efficiency, amaranthus retroflexus ([1]; Pre-emergence soil treatment) | efficiency, Dog point ([2]; Postemergence spraying) | efficiency, Dog point ([2]; Pre-emergence soil treatment) | efficiency, Crabgrass ([3]; Postemergence spraying) | efficiency, Crabgrass ([3]; Pre-emergence soil treatment) | efficiency, Eclipta prostrata ([4]; Postemergence spraying) | efficiency, Eclipta prostrata ([4]; Pre-emergence soil treatment) | efficiency, Abutilon ([5]; Postemergence spraying) | efficiency, Abutilon ([5]; Pre-emergence soil treatment) | inhibition rate, Wheat Root [6] | inhibition rate, Wheat Stem [6] | inhibition rate, Chinese sorghum Root [7] | inhibition rate, Chinese sorghum Stem [7] | inhibition rate, Radish Root [8] | inhibition rate, Radish Stem [8] | efficiency, Mustard ([9]; Postemergence spraying) | efficiency, Mustard ([9]; Pre-emergence soil treatment) | inhibition rate, Cucumber Root [10] | inhibition rate, Cucumber Stem [10] | other results
CON=C(C(=O)OC)c1ccccc1COc1cccc(-c2ncccc2C)c1 [Compound 83] | 20% | 20% | 0% | 0% | 0% | 0% | 0% | 0% | 30% | 0% | 60% | 20% | 80% | 30% | 50% | 50% | 0% | 0% | 80% | 30% | inhibition rate, Barnyardgrass Root [11]: 80%; inhibition rate, Barnyardgrass Stem [11]: 0%; inhibition rate, Rape Root [12]: 80%; inhibition rate, Rape Stem [12]: 50%; efficiency, Small quinoa ([13]; Postemergence spraying): 50%; efficiency, Small quinoa ([13]; Pre-emergence soil treatment): 30%; activity for grass targets such as crabgrass and dog point [14]: poor activity; activity on grass weeds such as crabgrass, dog point [14]: almost have no activity; herbicidal activity on broadleaf weeds targets [15]: herbicidal activity; activity on the growth of broadleaf weeds [15]: inhibitory activity
CON=C(C(=O)OC)c1ccccc1COc1ccc(-c2ccc(Cl)cn2)cc1 [Compound 27] | 80% | 50% | 0% | 0% | 0% | 0% | 80% | 0% | 60% | 0% | 50% | 0% | 50% | 0% | 50% | 20% | 80% | 30% | 60% | 0% | inhibition rate, Barnyardgrass Root [11]: 60%; inhibition rate, Barnyardgrass Stem [11]: 30%; inhibition rate, Rape Root [12]: 50%; inhibition rate, Rape Stem [12]: 50%; efficiency, Small quinoa ([13]; Postemergence spraying): 60%; efficiency, Small quinoa ([13]; Pre-emergence soil treatment): 25%; activity for grass targets such as crabgrass and dog point [14]: poor activity; activity on grass weeds such as crabgrass, dog point [14]: almost have no activity; herbicidal activity on broadleaf weeds targets [15]: herbicidal activity; activity on the growth of broadleaf weeds [15]: inhibitory activity
CON=C(C(=O)OC)c1ccccc1COc1cc(-c2ccccn2)ccc1C(F)(F)F [Compound 112] | 80% | 50% | 0% | 0% | 0% | 0% | 60% | 0% | 50% | 0% | 0% | 0% | 0% | 0% | 50% | 80% | 100% | 50% | 50% | 80% | inhibition rate, Barnyardgrass Root [11]: 0%; inhibition rate, Barnyardgrass Stem [11]: 0%; inhibition rate, Rape Root [12]: 50%; inhibition rate, Rape Stem [12]: 80%; efficiency, Small quinoa ([13]; Postemergence spraying): 75%; efficiency, Small quinoa ([13]; Pre-emergence soil treatment): 45%; activity for grass targets such as crabgrass and dog point [14]: poor activity; activity on grass weeds such as crabgrass, dog point [14]: almost have no activity; herbicidal activity on broadleaf weeds targets [15]: herbicidal activity; activity on the growth of broadleaf weeds [15]: inhibitory activity
CON=C(C(=O)OC)c1ccccc1COc1ccc(-c2cccc(C)n2)cc1 [Compound 120] | 20% | 0% | 0% | 0% | 0% | 0% | 30% | 0% | 50% | 0% | 20% | 0% | 50% | 30% | 50% | 0% | 40% | 20% | 70% | 30% | inhibition rate, Barnyardgrass Root [11]: 60%; inhibition rate, Barnyardgrass Stem [11]: 20%; inhibition rate, Rape Root [12]: 60%; inhibition rate, Rape Stem [12]: 0%; efficiency, Small quinoa ([13]; Postemergence spraying): 60%; efficiency, Small quinoa ([13]; Pre-emergence soil treatment): 50%; activity for grass targets such as crabgrass and dog point [14]: poor activity; activity on grass weeds such as crabgrass, dog point [14]: almost have no activity; herbicidal activity on broadleaf weeds targets [15]: herbicidal activity; activity on the growth of broadleaf weeds [15]: inhibitory activity
CON=C(C(=O)OC)c1ccccc1COc1cccc(-c2ncc(Cl)cc2Cl)c1 [Compound 98] | 80% | 50% | 0% | 0% | 0% | 0% | 80% | 50% | 80% | 60% | 20% | 0% | 50% | 30% | 50% | 80% | 100% | 50% | 50% | 80% | inhibition rate, Barnyardgrass Root [11]: 60%; inhibition rate, Barnyardgrass Stem [11]: 20%; inhibition rate, Rape Root [12]: 50%; inhibition rate, Rape Stem [12]: 80%; efficiency, Small quinoa ([13]; Postemergence spraying): 75%; efficiency, Small quinoa ([13]; Pre-emergence soil treatment): 45%; activity for grass targets such as crabgrass and dog point [14]: poor activity; activity on grass weeds such as crabgrass, dog point [14]: almost have no activity; herbicidal activity on broadleaf weeds targets [15]: herbicidal activity; activity on the growth of broadleaf weeds [15]: inhibitory activity

From patent US9884823B2, “Oxime ether acetate compound, preparation method therefor and weeding application thereof” (ZHEJIANG UNIVERSITY OF TECHNOLOGY, priority 2014, dated 2018)
